# Test results reported in ChEMBL document CHEMBL1201862, “PubChem BioAssay data set” (2004).
# Active and inactive are the calls of the source.
# Target: T1, Replicative DNA helicase DnaB (Mycobacterium tuberculosis, UniProt P9WMR3)
# T1 sequence (P9WMR3 whole entry): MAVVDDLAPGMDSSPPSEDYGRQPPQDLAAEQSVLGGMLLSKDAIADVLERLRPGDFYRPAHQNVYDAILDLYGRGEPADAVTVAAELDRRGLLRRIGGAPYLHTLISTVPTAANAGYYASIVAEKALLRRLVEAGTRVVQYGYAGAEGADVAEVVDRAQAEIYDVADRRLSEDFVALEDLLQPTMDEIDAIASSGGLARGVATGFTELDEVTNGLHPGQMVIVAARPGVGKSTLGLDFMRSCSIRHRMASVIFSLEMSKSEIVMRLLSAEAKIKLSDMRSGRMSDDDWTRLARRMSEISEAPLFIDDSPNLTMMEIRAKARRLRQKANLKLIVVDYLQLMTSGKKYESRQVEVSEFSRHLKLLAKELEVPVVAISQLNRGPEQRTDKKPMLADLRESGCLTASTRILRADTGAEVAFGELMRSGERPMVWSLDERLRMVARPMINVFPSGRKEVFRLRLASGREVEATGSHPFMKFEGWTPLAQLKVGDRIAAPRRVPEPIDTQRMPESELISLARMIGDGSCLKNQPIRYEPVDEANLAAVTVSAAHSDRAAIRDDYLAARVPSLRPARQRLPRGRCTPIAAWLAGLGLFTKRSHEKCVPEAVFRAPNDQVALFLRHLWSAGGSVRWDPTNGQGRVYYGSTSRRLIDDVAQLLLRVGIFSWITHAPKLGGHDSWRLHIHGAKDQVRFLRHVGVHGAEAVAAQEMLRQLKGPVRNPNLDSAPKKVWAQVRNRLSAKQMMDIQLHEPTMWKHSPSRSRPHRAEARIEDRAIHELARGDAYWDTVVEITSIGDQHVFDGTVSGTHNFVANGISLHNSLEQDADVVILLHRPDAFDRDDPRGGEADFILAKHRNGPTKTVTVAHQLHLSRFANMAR
# Assay: DnaB intein splicing inhibitors, dose response, biochemical, cell-free fluorescence (AID 449749)
# Format: functional
# Settings: not given
row,SMILES,AC50
1,Cc1n[nH]c2c1C1(CCN(C(=O)c3ccccc3)CC1)C(C#N)=C(N)O2,7.89 µM (active)
2,COc1ccc(C2C(C#N)=C(N)Oc3[nH]nc(C)c32)cc1CN1CCN(c2ccc(F)cc2)CC1 (stereo not given),10.3 µM (active)
3,CCOC(=O)/C=c1\s/c(=C(\C#N)C(N)=O)n(-c2ccccc2)c1=O,9.68 µM (active)

# Target: T2, Corticotropin-releasing factor receptor 2/Corticotropin-releasing factor-binding protein (Homo sapiens, UniProt P24387+Q13324)
# T2 sequence (Q13324 whole entry): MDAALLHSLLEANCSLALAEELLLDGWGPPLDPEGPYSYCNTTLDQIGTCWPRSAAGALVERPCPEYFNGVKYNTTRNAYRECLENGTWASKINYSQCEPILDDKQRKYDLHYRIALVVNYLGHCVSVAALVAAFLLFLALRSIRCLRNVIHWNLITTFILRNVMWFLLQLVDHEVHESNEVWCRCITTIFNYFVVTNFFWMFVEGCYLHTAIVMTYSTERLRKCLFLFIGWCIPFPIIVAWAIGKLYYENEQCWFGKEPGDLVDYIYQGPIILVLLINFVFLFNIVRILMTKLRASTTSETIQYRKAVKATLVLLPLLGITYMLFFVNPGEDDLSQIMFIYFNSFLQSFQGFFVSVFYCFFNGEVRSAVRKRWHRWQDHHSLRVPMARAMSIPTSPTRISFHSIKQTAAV
# T2 sequence (P24387 whole entry): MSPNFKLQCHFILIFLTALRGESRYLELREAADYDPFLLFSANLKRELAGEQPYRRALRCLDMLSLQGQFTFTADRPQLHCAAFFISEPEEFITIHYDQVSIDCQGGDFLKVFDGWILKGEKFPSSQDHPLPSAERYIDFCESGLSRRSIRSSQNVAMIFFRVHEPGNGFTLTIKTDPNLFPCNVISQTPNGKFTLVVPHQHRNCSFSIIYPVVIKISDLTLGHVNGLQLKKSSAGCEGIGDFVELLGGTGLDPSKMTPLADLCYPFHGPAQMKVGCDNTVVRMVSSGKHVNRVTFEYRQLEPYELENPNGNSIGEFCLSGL
# Assay: activators of CRF receptor 2 with binding protein – uHTS hits, confirmation (AID 602473)
# Format: functional
# Settings: read-out: EC50_Mean
row,SMILES,EC50
1,COc1ccc(-c2ccc(C3C(C#N)=C(N)Oc4[nH]nc(C)c43)o2)cc1 (stereo not given),10.1 µM (active)
2,Cc1cc(N2CCOCC2)nc(N)n1,10.4 µM (active)
3,N#C/C(=C/c1ccc(-c2ccc([N+](=O)[O-])cc2)o1)c1nnc(N2CCOCC2)n1-c1ccccc1,11 µM (active)
4,CCOC(=O)c1c(/N=C/C2C(=O)NC(=S)NC2=O)sc2c1CCC2,> 53 µM (inactive)

# Target: T3, Protein skinhead-1 (Caenorhabditis elegans, UniProt P34707)
# T3 sequence (P34707 whole entry): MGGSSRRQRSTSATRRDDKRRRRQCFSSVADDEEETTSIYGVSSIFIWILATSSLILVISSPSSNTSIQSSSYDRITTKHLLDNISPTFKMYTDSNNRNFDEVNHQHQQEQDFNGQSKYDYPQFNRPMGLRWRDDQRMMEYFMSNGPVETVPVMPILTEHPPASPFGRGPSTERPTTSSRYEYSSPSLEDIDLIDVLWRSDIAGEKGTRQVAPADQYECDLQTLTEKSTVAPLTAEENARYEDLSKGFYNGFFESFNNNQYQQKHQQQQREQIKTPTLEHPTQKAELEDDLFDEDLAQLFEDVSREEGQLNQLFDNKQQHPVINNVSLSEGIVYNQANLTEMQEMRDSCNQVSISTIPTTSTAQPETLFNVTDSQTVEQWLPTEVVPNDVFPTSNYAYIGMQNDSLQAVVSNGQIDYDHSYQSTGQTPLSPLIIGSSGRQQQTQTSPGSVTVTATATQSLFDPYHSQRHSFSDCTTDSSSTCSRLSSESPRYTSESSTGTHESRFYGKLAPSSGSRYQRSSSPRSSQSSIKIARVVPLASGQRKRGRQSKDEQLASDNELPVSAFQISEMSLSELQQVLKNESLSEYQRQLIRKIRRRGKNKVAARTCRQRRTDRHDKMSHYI
# Format: functional
# Settings: not given
row,SMILES,IC50
1,CCOc1cc(NC(=O)c2ccco2)c(OCC)cc1NC(=O)CCc1ccccc1OC,> 100 µM (inactive)
2,Nc1nc(-c2ccc(-c3ccccc3)cc2)cs1,> 100 µM (inactive)
3,Nc1nc(-c2ccc(Oc3ccccc3)cc2)cs1,98.1 µM (inactive)
4,Cn1nc(C(=O)N2CCN(S(=O)(=O)c3ccccc3)CC2)c2ccccc2c1=O,> 100 µM (inactive)
5,Cc1cc2ccccc2n1CCNC(=O)c1ccc(S(=O)(=O)N2CCOCC2)cc1,> 100 µM (inactive)
6,COc1ccccc1C(=O)Nc1ccc(Br)cc1C,> 100 µM (inactive)
7,CCCC(C(=O)NCC1CCCO1)N(Cc1ccccc1)C(=O)CNS(=O)(=O)c1ccccc1 (stereo not given),> 100 µM (inactive)
8,O=[N+]([O-])c1ccc2cn(-c3ccccc3)nc2c1,54.4 µM (inactive)
9,O=C(C=Cc1ccccc1)c1cc(Br)ccc1O,> 100 µM (inactive)
10,CC1(c2ccc(Cl)cc2)NC(=O)N(CN2CCOCC2)C1=O (stereo not given),> 100 µM (inactive)
11,CCN(CC(=O)Nc1ccccc1C(F)(F)F)C(=O)C1CC(=O)N(Cc2ccccc2)C1 (stereo not given),> 100 µM (inactive)
12,Cc1ccccc1CNC(=O)c1ccc2sc([C@H]3C[C@H](O)[C@@H](CO)O3)nc2c1,> 100 µM (inactive)

# Target: Cytochrome P450 2C19 (Homo sapiens, UniProt P33261)
# Assay: Cytochrome panel assay with activity outcomes. Panel member name: p450-cyp2c19 Compounds with AC50 equal or less than 10 uM are considered active
# Format: functional
# Settings: not given
# Sequence of Cytochrome P450 2C19 (P33261 whole entry): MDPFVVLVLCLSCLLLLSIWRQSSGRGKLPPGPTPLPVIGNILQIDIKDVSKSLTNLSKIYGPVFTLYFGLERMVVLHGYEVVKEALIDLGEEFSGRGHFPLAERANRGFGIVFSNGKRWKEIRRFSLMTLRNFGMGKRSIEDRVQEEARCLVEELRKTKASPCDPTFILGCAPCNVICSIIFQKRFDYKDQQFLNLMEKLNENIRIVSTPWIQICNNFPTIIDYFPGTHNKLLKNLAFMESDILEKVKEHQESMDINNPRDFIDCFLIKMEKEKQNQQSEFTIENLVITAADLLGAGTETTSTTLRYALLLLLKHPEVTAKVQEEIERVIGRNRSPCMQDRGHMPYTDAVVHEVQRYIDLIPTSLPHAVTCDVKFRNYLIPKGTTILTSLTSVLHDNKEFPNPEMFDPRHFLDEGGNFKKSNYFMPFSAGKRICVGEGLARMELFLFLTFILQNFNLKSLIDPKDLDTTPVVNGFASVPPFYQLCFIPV
row,SMILES,AC50
1,CCN(CC)Cc1c(O)c(Cl)cc2c3c(c(=O)oc12)CCCC3,inconclusive

# Same assay, conditions: read-out: AC50
row,SMILES,AC50
1,CCCCn1cnc2c(c(CC#N)nn2-c2ccccc2)c1=N,6.31 µM (inconclusive)
2,CC(/C=N\NC(=O)Cn1c(C)nc2ccccc21)=C\c1ccccc1,0.562 µM (inconclusive)

# Target: T4, Cytochrome P450 1A2 (Homo sapiens, UniProt P05177);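 note: PubChem cytochrome P450 panel assay, CYP1A2 panel member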
# T4 sequence (P05177 whole entry): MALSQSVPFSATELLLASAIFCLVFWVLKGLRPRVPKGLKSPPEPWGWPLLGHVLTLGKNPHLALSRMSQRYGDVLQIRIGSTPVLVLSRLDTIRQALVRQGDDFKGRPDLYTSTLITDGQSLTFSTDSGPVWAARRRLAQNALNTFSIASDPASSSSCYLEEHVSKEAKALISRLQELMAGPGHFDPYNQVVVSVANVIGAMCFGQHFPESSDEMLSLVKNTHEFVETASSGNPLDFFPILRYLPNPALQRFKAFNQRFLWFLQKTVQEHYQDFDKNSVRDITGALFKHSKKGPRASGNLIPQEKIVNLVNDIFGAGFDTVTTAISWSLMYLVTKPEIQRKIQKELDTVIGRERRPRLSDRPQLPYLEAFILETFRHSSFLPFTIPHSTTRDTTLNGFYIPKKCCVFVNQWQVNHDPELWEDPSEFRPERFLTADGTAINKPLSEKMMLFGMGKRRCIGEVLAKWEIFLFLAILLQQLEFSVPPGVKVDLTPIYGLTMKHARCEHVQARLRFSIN
# Settings: not given
row,SMILES,AC50
1,CN1CCN(c2ncc3nc(-c4cccc(C#N)c4)c(=O)n(C)c3n2)CC1,12.6 µM (inconclusive)
2,CCN(CC)Cc1c(O)c(Cl)cc2c3c(c(=O)oc12)CCCC3,11.2 µM (inconclusive)
3,NCCCCCCCCCCNS(=O)(=O)c1cccc2c(Cl)cccc12,15.8 µM (inconclusive)
4,CCCC/C=C/C(NC(=O)C(C)(C)C)c1ccccc1 (stereo not given),20 µM (inconclusive)
5,CCCCn1cnc2c(c(CC#N)nn2-c2ccccc2)c1=N,1 µM (inconclusive)
6,Cc1noc(C)c1-c1ccc2ncnc(N3CCC(C(=O)O)CC3)c2c1,25.1 µM (inconclusive)
7,Cc1ccc(CN2CC34C=CC(O3)C(C(=O)NCc3ccc5c(c3)OCO5)C4C2=O)cc1 (stereo not given),17.8 µM (inconclusive)
8,COc1cc2c(cc1OC)C(C(=O)Nc1ccccn1)C(c1cccnc1)N(C)C2=O (stereo not given),25.1 µM (inconclusive)
9,O=C=Nc1ccc(Cc2ccc(N=C=O)cc2)cc1.O=c1oc(=O)c2cc3c(=O)oc(=O)c3cc12,5.01 µM (inconclusive)
10,COc1ccccc1N1CCN(CCCCN2C(=O)CCC2=O)CC1,39.8 µM (inconclusive)
11,CC(/C=N\NC(=O)Cn1c(C)nc2ccccc21)=C\c1ccccc1,8.91 µM (inconclusive)
12,Cc1cc(CC(=O)O)n(C)c1C(=O)c1ccc(Cl)cc1 [ZOMEPIRAC SODIUM],12.6 µM (inconclusive)

# Target: Cytochrome P450 2C9 (Homo sapiens, UniProt P11712)
# Settings: not given
# Sequence of Cytochrome P450 2C9 (P11712 whole entry): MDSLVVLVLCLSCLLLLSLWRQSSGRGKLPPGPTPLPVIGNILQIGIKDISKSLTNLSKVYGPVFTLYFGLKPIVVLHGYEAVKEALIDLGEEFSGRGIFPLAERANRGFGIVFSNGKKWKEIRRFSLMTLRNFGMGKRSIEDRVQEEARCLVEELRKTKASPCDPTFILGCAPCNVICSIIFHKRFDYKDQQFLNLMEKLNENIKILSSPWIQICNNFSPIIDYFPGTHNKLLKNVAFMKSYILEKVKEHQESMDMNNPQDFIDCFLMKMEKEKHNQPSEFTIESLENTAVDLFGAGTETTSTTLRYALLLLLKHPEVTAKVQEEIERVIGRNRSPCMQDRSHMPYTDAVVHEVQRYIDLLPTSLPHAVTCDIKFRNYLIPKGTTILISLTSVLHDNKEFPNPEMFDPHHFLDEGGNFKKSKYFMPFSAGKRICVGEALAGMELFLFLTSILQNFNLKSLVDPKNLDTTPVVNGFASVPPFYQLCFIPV
row,SMILES,AC50
1,CN1CCN(c2ncc3nc(-c4cccc(C#N)c4)c(=O)n(C)c3n2)CC1,39.8 µM (inconclusive)
2,CCN(CC)Cc1c(O)c(Cl)cc2c3c(c(=O)oc12)CCCC3,25.1 µM (inconclusive)
3,CCCC/C=C/C(NC(=O)C(C)(C)C)c1ccccc1 (stereo not given),39.8 µM (inconclusive)
4,Cc1ccc(CN2CC34C=CC(O3)C(C(=O)NCc3ccc5c(c3)OCO5)C4C2=O)cc1 (stereo not given),12.6 µM (inconclusive)
5,COc1ccc(C2C(C#N)=C(N)Oc3[nH]nc(C)c32)cc1CN1CCN(c2ccc(F)cc2)CC1 (stereo not given),35.5 µM (inconclusive)
6,COc1cc2c(cc1OC)C(C(=O)Nc1ccccn1)C(c1cccnc1)N(C)C2=O (stereo not given),11.2 µM (inconclusive)

# Target: T5, Protein RecA (Mycobacterium tuberculosis, UniProt P9WHJ3)
# T5 sequence (P9WHJ3 whole entry): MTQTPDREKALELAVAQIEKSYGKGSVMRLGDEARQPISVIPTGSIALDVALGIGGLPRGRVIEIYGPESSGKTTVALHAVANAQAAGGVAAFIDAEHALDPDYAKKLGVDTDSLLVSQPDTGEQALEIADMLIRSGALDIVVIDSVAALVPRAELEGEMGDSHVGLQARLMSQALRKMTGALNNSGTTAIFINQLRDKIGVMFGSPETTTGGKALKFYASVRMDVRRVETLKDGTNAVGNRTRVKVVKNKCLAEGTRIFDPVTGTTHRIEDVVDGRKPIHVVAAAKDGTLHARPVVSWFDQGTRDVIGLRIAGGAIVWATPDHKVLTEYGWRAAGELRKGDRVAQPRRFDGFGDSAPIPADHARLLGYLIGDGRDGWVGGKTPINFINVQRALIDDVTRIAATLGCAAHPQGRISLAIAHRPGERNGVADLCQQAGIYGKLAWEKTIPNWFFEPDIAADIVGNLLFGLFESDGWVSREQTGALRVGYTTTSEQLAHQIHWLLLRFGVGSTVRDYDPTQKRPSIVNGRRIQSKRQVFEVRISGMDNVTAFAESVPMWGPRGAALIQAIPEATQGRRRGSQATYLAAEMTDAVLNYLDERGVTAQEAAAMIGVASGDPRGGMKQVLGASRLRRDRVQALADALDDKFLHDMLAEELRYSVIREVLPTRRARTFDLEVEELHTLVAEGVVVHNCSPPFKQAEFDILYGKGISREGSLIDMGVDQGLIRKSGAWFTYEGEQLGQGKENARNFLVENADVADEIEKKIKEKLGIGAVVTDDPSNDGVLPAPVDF
# Assay: Fluorescence Cell-Free Homogeneous Dose Retest to Identify Inhibitors of RecA-Intein Splicing Activity. [Related pubchem assays (depositor defined):AID2097, AID2223, AID489010, AID492950]
# Format: functional
# Settings: not given
row,SMILES,EC50
1,Cc1n[nH]c2c1C1(CCN(C(=O)c3ccccc3)CC1)C(C#N)=C(N)O2,1.3 µM (active)
2,COc1ccc(C2C(C#N)=C(N)Oc3[nH]nc(C)c32)cc1CN1CCN(c2ccc(F)cc2)CC1 (stereo not given),6.55 µM (active)
3,CCOC(=O)/C=c1\s/c(=C(\C#N)C(N)=O)n(-c2ccccc2)c1=O,> 380 µM (inconclusive)

# Target: Cytochrome P450 2D6 (Homo sapiens, UniProt P10635);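 note: CYP2D6 member of a cytochrome P450 panel assay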
# Settings: not given
# Sequence of Cytochrome P450 2D6 (P10635 whole entry): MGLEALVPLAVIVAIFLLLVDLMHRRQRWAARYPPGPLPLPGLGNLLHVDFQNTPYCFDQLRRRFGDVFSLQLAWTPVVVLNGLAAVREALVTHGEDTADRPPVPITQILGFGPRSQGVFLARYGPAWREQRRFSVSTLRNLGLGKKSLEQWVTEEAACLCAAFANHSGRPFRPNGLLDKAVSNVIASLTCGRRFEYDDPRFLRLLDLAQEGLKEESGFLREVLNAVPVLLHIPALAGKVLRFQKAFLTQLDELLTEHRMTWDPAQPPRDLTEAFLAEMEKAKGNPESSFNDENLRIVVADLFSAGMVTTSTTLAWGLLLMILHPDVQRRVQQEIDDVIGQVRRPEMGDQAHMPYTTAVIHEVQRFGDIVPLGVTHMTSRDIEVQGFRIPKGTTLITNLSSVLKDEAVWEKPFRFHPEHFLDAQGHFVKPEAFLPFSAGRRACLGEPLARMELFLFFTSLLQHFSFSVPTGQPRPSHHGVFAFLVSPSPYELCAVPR
row,SMILES,AC50
1,CCCC/C=C/C(NC(=O)C(C)(C)C)c1ccccc1 (stereo not given),20 µM (inconclusive)
2,COc1ccc(C2C(C#N)=C(N)Oc3[nH]nc(C)c32)cc1CN1CCN(c2ccc(F)cc2)CC1 (stereo not given),25.1 µM (inconclusive)
